Assay: Solubility of precursor compounds in methanol
Assay type: physicochemical
Method: Ca(dbm)2.4H2O (1 g) was weighed into a 250 mL conical flask. Methanol (50 mL) was added, the flask was stoppered and the solution was swirled for […]2 min. The solution was incubated in a water bath at varying temperatures (20°, 30° or 40° C.) for a period of 4 or 17 h. At the end of the incubation period, two 20 mL aliquots of the solution were filtered into separate, pre-weighed round bottomed flasks. […] Experiments for all conditions were carried out in duplicate. The results of the solubility experiments are compiled in Table 2.

solubility in methanol (incubation 20° C., 4 h): 1.78 ± 0.1 g/100 mL
solubility in methanol (incubation 20° C., 17 h): 1.91 ± 0.5 g/100 mL
solubility in methanol (incubation 30° C., 4 h): 1.86 ± 0.1 g/100 mL
solubility in methanol (incubation 30° C., 17 h): 1.88 ± 0.5 g/100 mL
solubility in methanol (incubation 40° C., 4 h): 1.98 ± 0.2 g/100 mL
solubility in methanol (incubation 40° C., 17 h): 1.92 ± 0.4 g/100 mL
solubility in methanol relative to the acac and benzoylacetone calcium complexes (qualitative comparison): higher solubility
Compound: O.O.O.O.O=C(C=C([O-])c1ccccc1)c1ccccc1.O=C(C=C([O-])c1ccccc1)c1ccccc1.[Ca+2] [Ca(dbm)2•4H2O, Ca(dbm)2.4H2O]
